# Assay results from US5484778A, “Phthalocyanine photosensitizers for photodynamic therapy and methods for their use” (priority 1993, dated 1996).
# Entries after “also recorded” stand apart in the source; their conditions may differ. Where two headings read alike, the source gives them in different places.
# Legend:
# [1] = tested on: Chinese hamster V79-379 cells; assay: Uptake of phthalocyanines by V79 cells relative to AlPcCl (Table 1); type: cell-based; conditions: for Uptake, efficiency relative to 1 μM AlPcCl: 18 h
# Procedure: Chinese hamster V79-379 lung fibroblasts were grown in monolayer culture in McCoy's 5A medium (Gibco Laboratories, Grand Island, N.Y.) augmented with 10% calf serum and buffered with 20 mM HEPES (pH 7.4).
# Total uptake was determined by scraping the phthalocyanine-treated monolayer, collecting the cells on a glass-fiber filter, and extracting the phthalocyanine in ethanol, as previously described by Ramakrishnan, et al., 1989. (Ramakrishnan, N., M. E. Clay, M. F. Horng, A. R. Antunez, & H. H. Evans, "DNA Lesions and DNA Degradation in Mouse Lymphoma L5178Y Cells After Photodynamic Treatment Sensitized by Chloroaluminum Phthalocyanine",Photochem. Photobiol, in press, 1989). The amount of drug was determined by absorption at 674 nm and expressed relative to the number of cells, as measured in a Coulter cell counter on an aliquot of the cell population. Controls included cells not treated with drug, medium alone, and drug-containing medium without cells. The results of the total uptake of the various compositions of the present invention in comparison to AlPcCl are set forth below in Table 1.
# The cells were treated with 1 μM AlPcCl (from Eastman Kodak, Rochester, N.Y.) or with phthalocyanine compositions I-VI (0.5-1.0 μM final concentration in the medium) for 18 hours by adding the appropriate volume of a 1.0 mM stock solution in dimethylformamide (DMF) to the culture medium. The growth medium was replaced with 4 ml Hank's balanced salt solution (HBSS), and the cells were irradiated. The light source was a 500 W tungsten-halogen lamp located approximately 29 inches below the surface of a glass exposure tray. The visible light administered to the cells was filtered to allow passage of only that portion of the visible spectrum above 600 nm (Lee Primary red filter No. 106, Vincent Lighting, Cleveland, Ohio). The fluence rate was approximately 0.074 kJ/m^2 /s at the level of the cell monolayer.
# All of the compounds have been examined for the extent of cellular uptake after exposure of V79 cells to 1 μM or less in complete medium, and the data of Table 1 are presented relative to the uptake from 1 μM AlPcCl, which was 0.723±0.172 nmole/10^7 cells (mean ±S. D., 25 determinations). […] In particular, when the concentration of Compound IV was 1 μM in the medium, the uptake into the cells was sufficiently high that some of the uptake and phototoxicity studies were repeated at 0.5 μM.
# V79 cells [2] = assay: Clonogenicity, killing of V79 cells using photodynamic therapy (Table 3); type: cell-based, Chinese hamster
# How it was run: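 V79 Chinese hamster lung fibroblasts were loaded with 0.5 or 1.0 μM phthalocyanine, then about 18 h later irradiated with increasing doses of 675 nm broad-band red light (tungsten-halogen lamp, 600 nm high-pass filter). Recorded value is the light dose killing 90% of cells, or, failing that, the maximum kill (% survival) and its dose.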
# L5178Y-R (LY-R) cells = assay: Clonogenic survival of PDT-treated L5178Y-R cells (Tables 4 and 5, FIG. 3); type: cell-based, mouse; conditions: for viability at 0.5 µM: Mus musculus, read-out: normalized plating efficiency / percent survival, 0.5 μM
# Procedure: Mouse lymphoma L5178y-R (hereinafter also referred to as "LY-R") cells were grown in suspension culture as described in Ramakrishnan N., Oleinick, N. L. Clay, M. E., Horng, M. F., Antunez, A. R., and Evans H. H., DNA lesions and DNA degradation in mouse lymphoma L5178Y cells after photodynamic treatment sensitized by chloroaluminum phthalocyanine. Photochem. Photobiol. 50, 373-378, 1989 and Agarwal, M. L., Clay, M. E., Harvey, E. J., Evans, H. H., Antunez, A. R., and Oleinick, N. L. Photodynamic therapy induces rapid cell death by apoptosis in L5178Y mouse lymphoma cells. Cancer Res., 51, 5993-5996, 1991.
# The cells were used while in exponential growth. Stock solutions of either 0.5 or 1 mM of PcIV, PcXII, PcX, PcXVIII were prepared in dimethylformamide unless otherwise indicated and added to the 10 mL medium at a rate of 1 μL per mL. After allowing 18 hours for uptake of the phthalocyanine into the cells, the flasks containing the cultures were placed on a glass exposure tray above a 500-W tungsten-halogen lamp. The exposure tray was fitted with a 600-nm high-pass filter. Flasks were exposed to various fluences of red light (up to 30 kJ/m^2) at a fluence rate of approximately 74 W/m^2). After irradiation, the cells were collected by centrifugation.
# For measurement of clonogenic cell survival, aliquots were plated in medium containing soft agar as described in Ramakrishnan N., Oleinick, N. L. Clay, M. E., Horng, M. F., Antunez, A. R., and Evans H. H., DNA lesions and DNA degradation in mouse lymphoma L5178Y cells after photodynamic treatment sensitized by chloroaluminum phthalocyanine. Photochem. Photobiol. 50, 373-378, 1989. The aliquots were plated in sufficient numbers to produce 50-200 colonies. The dishes were kept in an incubator at 37° C. in an atmosphere of 5% CO2 and 95% air for 10-14 days to allow viable cells to form colonies. Colonies were counted by eye. Controls treated with the phthalocyanine alone had plating efficiencies of ~90%. The plating efficiencies of the treated cells are normalized to the plating efficiencies of control cells in each experiment. For measurement of the induction of apoptosis, DNA was isolated from the treated and control cells 2 hours after photodynamic therapy, subjected to electrophoresis on 1.5% agarose, stained with ethidium bromide, and visualized by UV transillumination, as described in Agarwal et. al. The results are shown in Tables 4, 5 and 6 and in FIG. 3.
# In Table 4 each phthalocyanine was present at 0.5 μM, and the normalized plating efficiencies are presented as mean and standard deviation at each fluence tested. […] This relative activity of these four phthalocyanines is the same as obtained from screening in V79 cells.
# PcXII when present in the culture medium at 0.5 μM requires less light, that is the lowest fluence, to kill either 50% […] of the cells. PcIV is about 80% as active as PcXII, PcX is 44% as active as PcXII and PcXVIII is 22% as active as PcXII.
# V79 cells [3] = assay: Uptake of additional phthalocyanines into V79 cells (Table 2); conditions: for Uptake into V79 cells: 18 hours
# Procedure: V79 cells Chinese hamster lung fibroblasts were cultured using the cell culture methods described above. […] When the filters were dry, the phthalocyanines were extracted into ethanol and the absorption determined at the peak wavelength, usually 668 nm.
smiles,measurement,setting,value
"CN(C)CCC[Si](C)(C)O[Si]1(O)n2c3c4ccccc4c2N=C2N=C(N=c4c5ccccc5c(n41)=NC1=NC(=N3)c3ccccc31)c1ccccc12 (stereo not shown) [Compound IV, HOSiPcOsi(CH3)2)(CH2)3 N(CH3)2]","Uptake, efficiency relative to 1 μM AlPcCl",[1]; 0.5 μM,1.3
same,"Uptake, efficiency relative to 1 μM AlPcCl",[1]; 1.0 μM,1.64
same,cellular uptake (in words),"[1]; V79 cells, 1 μM or less, compared with AlPcCl",taken up into the cells more efficiently than was AlPcCl
same,LD 90,"V79 cells [2]; 0.5 μM, 18 h, light dose killing 90% of cells",4 kJ/m^2
same,"photosensitizing activity, killing V79 cells (in words)",V79 cells [2]; discussion of Table 3,most active at killing V79 cells
same,activity relative to PcXII,"L5178Y-R (LY-R) cells; 0.5 μM, from Table 5",about 80%
same,LD 90,"L5178Y-R (LY-R) cells; 0.5 μM, fluence reducing survival to 10%",2.15 kJ/m^2
same,LD50,"L5178Y-R (LY-R) cells; 0.5 μM, fluence reducing survival to 50%",1.38 kJ/m^2
same,photosensitizer activity in LY-R cells (in words),"L5178Y-R (LY-R) cells; 0.5 μM, listed as PcIV",active photosensitizers; also recorded: most active
same,viability at 0.5 µM,L5178Y-R (LY-R) cells; 0 kJ/m^2,100%
same,viability at 0.5 µM,L5178Y-R (LY-R) cells; 1 kJ/m^2,80.9%
same,viability at 0.5 µM,L5178Y-R (LY-R) cells; 2 kJ/m^2,19.7%
same,viability at 0.5 µM,L5178Y-R (LY-R) cells; 2.5 kJ/m^2,0.82%
same,viability at 0.5 µM,L5178Y-R (LY-R) cells; 3 kJ/m^2,0.16%
same,viability at 0.5 µM,L5178Y-R (LY-R) cells; 5 kJ/m^2,0.014%
same,solubility in solvents,Solubility,soluble in CH2 Cl2 and toluene
same,uptake by V79 cells (in words),V79 cells [3],taken up particulary well
same,Uptake into V79 cells,V79 cells [3]; 1 μM,0.7 ± 0.2 n Moles/10^6 cells
same,Uptake into V79 cells,V79 cells [3]; 2 μM,3.1 ± 0.3 n Moles/10^6 cells
same,Uptake into V79 cells,V79 cells [3]; 4 μM,4.6 ± 2.9 n Moles/10^6 cells
same,"Uptake into V79 cells, composite value",V79 cells [3]; average of all data,1.1 n Moles/10^6 cells/μM
same,Uptake (from Table 2),V79 cells [3]; repeated in Table 3,1.1 n Moles/10^6 cells/μM
